The values that follow are results of earlier work, collected in patent US6605646B2, “Vitamin supplement composition” (Upsher-Smith Laboratories, Inc., priority 1995, dated 2003).

The conditions of the data set: grain fortification, elderly adults.

Consider `Nc1nc2ncc(CNc3ccc(C(=O)N[C@@H](CCC(=O)O)C(=O)O)cc3)nc2c(=O)[nH]1` [folic acid, pteroylglutamic acid], for which the serum folate result is given as “increased serum folate” and the serum homocysteine result was “decreased serum homocysteine”.
